Experimental data taken from the NIST ThermoML archive (doi:10.1021/je0497303).

Experiment: xn = mol fraction of the nth substance listed
Conditions: 101.3 kPa, Liquid, Taylor dispersion method

C1CCCCC1 [cyclohexane] + CCCO
298.15 K
Conditions | binary diffusion coefficient [m2/s]
x2 = 0.03 | 8.3e-10
x2 = 0.1 | 6.6e-10
x2 = 0.3 | 3.9e-10
x2 = 0.5 | 4.2e-10
x2 = 0.7 | 6.5e-10
x2 = 0.9 | 1e-09
x2 = 0.97 | 1.15e-09

C1CCCCC1 [cyclohexane] + CCO
298.15 K
Conditions | binary diffusion coefficient [m2/s]
x2 = 0.03 | 9.9e-10
x2 = 0.1 | 7.7e-10
x2 = 0.3 | 4.3e-10
x2 = 0.5 | 4.6e-10
x2 = 0.7 | 7.3e-10
x2 = 0.9 | 1.23e-09
x2 = 0.97 | 1.41e-09

CCO [ethanol] + O
298.15 K
Conditions | binary diffusion coefficient [m2/s]
x1 = 0.1 | 7e-10
x1 = 0.2 | 4.1e-10
x1 = 0.3 | 3.8e-10
x1 = 0.5 | 5.1e-10
x1 = 0.7 | 7.6e-10
x1 = 0.9 | 1.08e-09

CCCCCC [hexane] + CCCO
298.15 K
Conditions | binary diffusion coefficient [m2/s]
x2 = 0 | 5.2e-09
x2 = 0.03 | 3.37e-09
x2 = 0.1 | 2.17e-09
x2 = 0.3 | 1.38e-09
x2 = 0.5 | 1.15e-09
x2 = 0.7 | 1.08e-09
x2 = 0.9 | 1.09e-09
x2 = 0.97 | 1.03e-09
x2 = 1 | 1.02e-09

CCCCCC [hexane] + CCO
298.15 K
Conditions | binary diffusion coefficient [m2/s]
x2 = 0 | 5.74e-09
x2 = 0.03 | 4.07e-09
x2 = 0.1 | 2.41e-09
x2 = 0.3 | 1.54e-09
x2 = 0.5 | 1.3e-09
x2 = 0.7 | 1.3e-09
x2 = 0.9 | 1.43e-09
x2 = 0.97 | 1.54e-09
x2 = 1 | 1.6e-09

CO [methanol] + O
298.15 K
Conditions | binary diffusion coefficient [m2/s]
x1 = 0 | 1.57e-09
x1 = 0.1 | 1.22e-09
x1 = 0.3 | 9.5e-10
x1 = 0.5 | 1.03e-09
x1 = 0.7 | 1.37e-09
x1 = 0.9 | 1.87e-09
x1 = 0.97 | 2.05e-09

ClC(Cl)(Cl)Cl [tetrachloromethane] + CCCCO
binary diffusion coefficient [m2/s]
Conditions | x2 = 0 | x2 = 0.03 | x2 = 0.1 | x2 = 0.3 | x2 = 0.5 | x2 = 0.7 | x2 = 0.9 | x2 = 0.97 | x2 = 1
298.15 K | 1.47e-09 | 7e-10 | 5e-10 | 2.9e-10 | 3.2e-10 | 5.4e-10 | 6.5e-10 | 6.9e-10 | 7.2e-10
308.15 K | 1.74e-09 | 9.3e-10 | 7.1e-10 | 5.2e-10 | 5.6e-10 | 6.5e-10 | 8e-10 | 8.9e-10 | 9.4e-10

ClC(Cl)(Cl)Cl [tetrachloromethane] + CCCO
298.15 K
Conditions | binary diffusion coefficient [m2/s]
x2 = 0 | 1.61e-09
x2 = 0.03 | 8.3e-10
x2 = 0.1 | 6.1e-10
x2 = 0.3 | 3.9e-10
x2 = 0.5 | 4.6e-10
x2 = 0.7 | 6.6e-10
x2 = 0.9 | 8.3e-10
x2 = 0.97 | 9.1e-10
x2 = 1 | 9.5e-10

ClC(Cl)(Cl)Cl [tetrachloromethane] + CCO
binary diffusion coefficient [m2/s]
Conditions | x2 = 0 | x2 = 0.03 | x2 = 0.1 | x2 = 0.3 | x2 = 0.5 | x2 = 0.7 | x2 = 0.9 | x2 = 0.97 | x2 = 1
298.15 K | 1.9e-09 | 1.06e-09 | 8.2e-10 | 6.4e-10 | 7.3e-10 | 9.9e-10 | 1.32e-09 | 1.43e-09 | 1.47e-09
303.15 K | 2.15e-09 | 1.6e-09 | 9.9e-10 | 8.3e-10 | 8.7e-10 | 1.14e-09 | 1.45e-09 | 1.56e-09 | 1.61e-09
308.15 K | 2.24e-09 | 1.8e-09 | 1.1e-09 | 9.5e-10 | 9.9e-10 | 1.28e-09 | 1.6e-09 | 1.76e-09 | 1.82e-09

Cc1ccccc1 [toluene] + CCCO
298.15 K
Conditions | binary diffusion coefficient [m2/s]
x2 = 0 | 2.67e-09
x2 = 0.03 | 2.37e-09
x2 = 0.1 | 1.81e-09
x2 = 0.3 | 1e-09
x2 = 0.5 | 8.5e-10
x2 = 0.7 | 1.01e-09
x2 = 0.9 | 1.28e-09
x2 = 0.97 | 1.4e-09
x2 = 1 | 1.46e-09

Cc1ccccc1 [toluene] + CCO
binary diffusion coefficient [m2/s]
Conditions | x2 = 0 | x2 = 0.03 | x2 = 0.1 | x2 = 0.3 | x2 = 0.5 | x2 = 0.7 | x2 = 0.9 | x2 = 0.97 | x2 = 1
298.15 K | 3.12e-09 | 2.94e-09 | 2.41e-09 | 1.22e-09 | 9.8e-10 | 1.16e-09 | 1.55e-09 | 1.7e-09 | 1.74e-09
308.15 K | 3.61e-09 | 3.4e-09 | 2.9e-09 | 1.7e-09 | 1.35e-09 | 1.59e-09 | 1.89e-09 | 2.04e-09 | 2.11e-09
